Assay results as given in PMC3555816, “A Lysine at the C-Terminus of an Odorant-Binding Protein is Involved in Binding Aldehyde Pheromone Components in Two Helicoverpa Species” (PLoS ONE, 2013).
Where two headings read alike, the source gives them in different places.

Columns and labels:
HarmOBP7-wt [1] = biological target: T1, HarmOBP7-wt (Helicoverpa armigera, UniProt F5ANI5); experiment: Competitive binding assay, displacement of 1-NPN from HarmOBP7-wt; conditions: for Affinity to HarmOBP7 (in words): competitive binding with 1-NPN
Experimental: (§1) Emission fluorescence spectra were recorded on a Hitachi F-4500 at 25°C in a right angle configuration, with a 1 cm light path quartz cuvette and 5 nm slits for both excitation and emission. The protein was dissolved in 50 mM Tris-HCl buffer, pH 7.4, while ligands were added as 1 mM methanol solutions.
The probe was excited at 337 nm and emission spectra were recorded between 380 and 450 nm. […] Dissociation constant for 1-NPN and the stoichiometry of binding was obtained by processing the data with Prism software.

HarmOBP7-wt [2] = biological target: T1, HarmOBP7-wt; experiment: Fluorescence binding of 1-NPN to HarmOBP7-wt
Experimental: (§2) Emission fluorescence spectra were recorded on a Hitachi F-4500 at 25°C in a right angle configuration, with a 1 cm light path quartz cuvette and 5 nm slits for both excitation and emission. […]
(§3) The probe was excited at 337 nm and emission spectra were recorded between 380 and 450 nm. […] Dissociation constant for 1-NPN and the stoichiometry of binding was obtained by processing the data with Prism software. Dissociation constants of the competitors were calculated from the corresponding [IC]50 values (concentrations of ligands halving the initial fluorescence value of 1-NPN), using the equation: KD = [IC50]/1+[1-NPN]/K1-NPN, [1-NPN] being the free concentration of 1-NPN and K1-NPN being the dissociation constant of the complex protein/1-NPN.

HarmOBP7-m1 = biological target: T2, HarmOBP7-m1 (Helicoverpa armigera, UniProt F5ANI5); experiment: Fluorescence binding of 1-NPN to HarmOBP7-m1 (lacks the last 6 residues)
T2 sequence (F5ANI5 22-142): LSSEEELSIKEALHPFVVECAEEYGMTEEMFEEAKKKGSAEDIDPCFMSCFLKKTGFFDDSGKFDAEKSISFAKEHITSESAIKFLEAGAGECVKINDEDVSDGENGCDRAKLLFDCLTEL
Experimental: as §2, §3

HarmOBP7-m2 = HarmOBP7-m2 (Helicoverpa armigera, UniProt F5ANI5); experiment: Fluorescence binding of 1-NPN to HarmOBP7-m2 (K123M); conditions: read-out: Dissociation constant of 1-NPN; HarmOBP7-m2, 2 µM protein in Tris, pH 7.4, three replicates, SD 0.22
Experimental: as §1, §3

[3] = HarmOBP7-wt, 2 µM protein and 2 µM 1-NPN, pH 7.4, values larger than 16 extrapolated from the competitive binding curves, read-out: [IC]50
[4] = HarmOBP7-wt, 2 µM protein and 2 µM 1-NPN, pH 7.4, concentration of ligand halving initial 1-NPN fluorescence, read-out: [IC]50
[5] = HarmOBP7-wt, calculated from [IC]50: KD = [IC50]/1+[1-NPN]/K1-NPN, read-out: KD (calculated dissociation constant)

T1 sequence (F5ANI5 entry or part of it): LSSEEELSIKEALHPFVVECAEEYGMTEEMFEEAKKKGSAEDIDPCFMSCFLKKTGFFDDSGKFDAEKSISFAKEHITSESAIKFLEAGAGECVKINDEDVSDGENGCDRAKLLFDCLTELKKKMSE
Chain of HarmOBP7-m2 (F5ANI5 entry or part of it): as above

Row | Structure (SMILES) | IC50 (HarmOBP7-wt [1]; [4]) | Kd (HarmOBP7-wt [1]; [5]) | other results
1 | CCCCCCCCCCO [1-Decanol] | – | – | IC50 (HarmOBP7-wt [1]): > 16 µM
2 | CCCCCCCCCCCCO [1-Dodecanol] | – | – | IC50 (HarmOBP7-wt [1]; [3]): > 25 µM
3 | CCCCCCCCCCCCCCCCO [1-Hexadecanol] | – | – | IC50 (HarmOBP7-wt [1]; [3]): > 16 µM
4 | c1ccc(Nc2cccc3ccccc23)cc1 [1-NPN, N-phenyl-1-naphthylamine] | – | – | Kd (HarmOBP7-wt [2]; 2 µM protein in Tris, pH 7.4, three replicates, SD 0.63, read-out: Dissociation constant of 1-NPN): 5.5 µM; Effect of pH on affinity of 1-NPN (in words) (HarmOBP7-wt [2]; pH range 3.5 to 9.5, basic conditions, no significant loss of binding down to pH 3.5): marked increase in affinity; Kd (HarmOBP7-m1; HarmOBP7-m1, 2 µM protein in Tris, pH 7.4, three replicates, SD 1.1, read-out: Dissociation constant of 1-NPN): 6.8 µM; Effect of pH on affinity of 1-NPN (in words) (HarmOBP7-m1; HarmOBP7-m1, pH range 3.5 to 9.5, basic conditions, no significant loss of binding down to pH 3.5): marked increase in affinity; Kd (HarmOBP7-m2): 3.2 µM
5 | CCCCCCCCCCCCCCCCCCO [1-Octadecanol] | – | – | IC50 (HarmOBP7-wt [1]; [3]): > 25 µM
6 | CCCCCCCCCCCCCCCO [1-Pentadecanol] | – | – | IC50 (HarmOBP7-wt [1]; [3]): > 25 µM
7 | CCCCCCCCCCCCCCO [1-Tetradecanol] | – | – | IC50 (HarmOBP7-wt [1]): 6.7 µM; Kd (HarmOBP7-wt [1]): 5.1 µM
8 | CCCCCCCCCCCCCO [1-Tridecanol] | 4.6 µM | 3.5 µM | –
9 | CCCCCCCCCCC(C)=O [2-Dodecanone] | – | – | IC50 (HarmOBP7-wt [1]; [3]): > 16 µM
10 | COc1ccccc1C=CC=O [2-Methoxycinnamaldehyde] | 14.7 µM | 11.1 µM | –
11 | Cc1ccc2ccccc2c1 [2-Methylnaphthalene] | – | – | IC50 (HarmOBP7-wt [1]): > 16 µM
12 | CCCCCCCCCCCC(C)=O [2-Tridecanone] | 9.6 µM | 7.3 µM | –
13 | CC(C)CCCC(C)CCOC(=O)c1ccccc1 (stereo not shown) [3,7-Dimethyloctylbenzoate] | 3.5 µM | 2.7 µM | –
14 | COc1ccc(-c2ccccc2)cc1 [4-Phenylanisole] | – | – | IC50 (HarmOBP7-wt [1]; [3]): > 16 µM
15 | O=Cc1ccccc1 [Benzaldehyde] | – | – | IC50 (HarmOBP7-wt [1]): 10.8 µM; Kd (HarmOBP7-wt [1]): 8.2 µM
16 | CCCCOC(=O)c1ccc(C(C)(C)C)cc1 [Butyl p-tert-butyl benzoate] | 6.9 µM | 5.2 µM | –
17 | O=C(O)/C=C/c1ccccc1 [Cinnamic acid] | – | – | IC50 (HarmOBP7-wt [1]): > 25 µM
18 | COc1cc(/C=C/C=O)ccc1O [Coniferyl aldehyde] | – | – | IC50 (HarmOBP7-wt [1]): 12.7 µM; Kd (HarmOBP7-wt [1]): 9.6 µM
19 | CCCCCCCCCC(=O)OCC [Ethyl decanoate] | – | – | IC50 (HarmOBP7-wt [1]; [3]): > 16 µM
20 | COc1cc(CC(=O)O)ccc1O [Homovanillic acid] | – | – | IC50 (HarmOBP7-wt [1]): > 16 µM
21 | COC(=O)C=Cc1ccccc1 [Methyl cinnamate] | – | – | IC50 (HarmOBP7-wt [1]; [3]): > 16 µM
22 | CCCCCC/C=C\CCCCCCCC=O [Z-9-hexadecenal] | – | – | Affinity to HarmOBP7 (in words) (HarmOBP7-wt [1]; HarmOBP7-wt): good affinity
23 | CCCC/C=C\CCCCCCCCCC=O [Z-11-hexadecenal] | – | – | Affinity to HarmOBP7 (in words) (HarmOBP7-wt [1]; HarmOBP7-wt): good affinity
24 | CC(C)c1ccc(C=O)cc1 [p-Isopropylbenzaldehyde] | 10.5 µM | 7.9 µM | –
25 | CCCCC/C(C=O)=C/c1ccccc1 [α-Amylcinnamaldehyde] | 5.5 µM | 4.2 µM | –

Second part, led by results:

Row | IC50 (HarmOBP7-wt [1]; [4]) | Kd (HarmOBP7-wt [1]; [5]) | Structure (SMILES) | other results
26 | 9.6 µM | 7.3 µM | CCCCOC(=O)/C=C/c1ccccc1 [Butyl cinnamate] | –
27 | 10.3 µM | 7.8 µM | CCCCCCCCCCCC=O [Dodecanal] | –
28 | 5.2 µM | 3.9 µM | CCCCCCCCCCCCOC(C)=O [Dodecyl acetate] | –
29 | 4.3 µM | 3.3 µM | CCCCCCCCCCCC(=O)OCC [Ethyl laurate] | –
30 | 4.7 µM | 3.5 µM | CCCCCCCCCCCCCC(=O)OCC [Ethyl myristate] | –
31 | 12.6 µM | 12.6 µM | CCCCCCCCCCCCCCCC(=O)OCC [Ethyl palmitate] | –
32 | 9.1 µM | 6.9 µM | CCCCCCCCCCCCCCCCC=O [Heptadecanal] | –
33 | 3.2 µM | 2.4 µM | CCCCCCCCCCCCCC=O [Tetradecanal] | –
34 | 4.9 µM | 3.7 µM | CCCCCCCCCCCCC=O [Tridecanal] | –
35 | 10.7 µM | 8.1 µM | CCCCCCCCCCC=O [Undecanal] | –
36 | 4.5 µM | 3.4 µM | CC(C)(C)c1ccc(C(=O)c2ccccc2)cc1 [p-tert-Butylbenzophenone] | –
